Source: the SangsterLogP compilation

Experiment: method code SF-AS, from PMID: 43458

First: CC(C)COC(=O)c1cc(O)c(O)c(O)c1
Second: CCOC(=O)c1cc(O)c(O)c(O)c1
The logP of the first is higher: 2.46 for the first, 1.3 for the second.

First: CCCCOC(=O)c1cc(O)c(O)c(O)c1
Second: CCCOC(=O)c1cc(O)c(O)c(O)c1
The logP of the first is higher: 2.41 for the first, 1.8 for the second.

Going from COC(=O)c1cc(O)c(O)c(O)c1 to CCCCCCCCOC(=O)c1cc(O)c(O)c(O)c1, the logP rises from 0.86 to 3.66.
